Results taken from ChEMBL document CHEMBL3390836, “Mannich- and LedererManasse-based analogues of the natural product S-(+)-curcuphenol as cancer proliferation and migration inhibitors” (Medchemcomm, 2012).

Tests used:
Assay type in all cases: functional
[1] = Cytotoxicity against human NCI-ADR-RES cells assessed as cell growth at 10^-4 M after 48 hrs by SRB assay relative to control; settings: read-out: Activity
Malme-3M = assay: Cytotoxicity against human MALME-3M cells assessed as cell growth at 10^-8 M after 48 hrs by SRB assay relative to control; settings: read-out: Activity
K562 [2] = assay: Cytotoxicity against human K562 cells after 48 hrs by SRB assay; settings: K562, 48 h
SK-MEL-28 [3] = assay: Cytotoxicity against human SK-MEL-28 cells assessed as cell growth at 10^-8 M after 48 hrs by SRB assay relative to control; settings: SK-MEL-28, 48 h, read-out: Activity
[4] = Cytotoxicity against human HCT116 cells after 48 hrs by SRB assay; settings: HCT-116, 48 h
DU-145 = assay: Cytotoxicity against human DU145 cells assessed as cell growth at 10^-7 M after 48 hrs by SRB assay relative to control; settings: DU-145, 48 h, read-out: Activity
TK-10 [5] = assay: Cytotoxicity against human TK10 cells assessed as cell growth at 10^-8 M after 48 hrs by SRB assay relative to control; settings: TK-10, 48 h, read-out: Activity
K562 [6] = assay: Cytotoxicity against human K562 cells assessed as cell growth at 10^-8 M after 48 hrs by SRB assay relative to control; settings: K562, 48 h, read-out: Activity
MCF7 = assay: Cytotoxicity against human MCF7 cells assessed as cell growth at 10^-8 M after 48 hrs by SRB assay relative to control; settings: MCF7, 48 h, read-out: Activity
[7] = Cytotoxicity against human EKVX cells assessed as cell growth at 10^-6 M after 48 hrs by SRB assay relative to control; settings: read-out: Activity
CAKI-1 = assay: Cytotoxicity against human Caki1 cells after 48 hrs by SRB assay; settings: CAKI-1, 48 h
HT-29 = assay: Cytotoxicity against human HT-29 cells assessed as cell growth at 10^-8 M after 48 hrs by SRB assay relative to control; settings: HT-29, 48 h, read-out: Activity
COLO 205 = assay: Cytotoxicity against human COLO205 cells assessed as cell growth at 10^-7 M after 48 hrs by SRB assay relative to control; settings: COLO 205, 48 h, read-out: Activity
A498 = assay: Cytotoxicity against human A498 cells assessed as cell growth at 10^-7 M after 48 hrs by SRB assay relative to control; settings: A498, 48 h, read-out: Activity
SK-MEL-28 [8] = assay: Cytotoxicity against human SK-MEL-28 cells assessed as cell growth at 10^-7 M after 48 hrs by SRB assay relative to control; settings: SK-MEL-28, 48 h, read-out: Activity
IGROV-1 = assay: Cytotoxicity against human IGROV1 cells assessed as cell growth at 10^-6 M after 48 hrs by SRB assay relative to control; settings: IGROV-1, 48 h, read-out: Activity
ACHN = assay: Cytotoxicity against human ACHN cells assessed as cell growth at 10^-4 M after 48 hrs by SRB assay relative to control; settings: read-out: Activity
TK-10 [9] = assay: Cytotoxicity against human TK10 cells assessed as cell growth at 10^-4 M after 48 hrs by SRB assay relative to control; settings: TK-10, 48 h, read-out: Activity
KM12 = assay: Cytotoxicity against human KM12 cells assessed as cell growth at 10^-8 M after 48 hrs by SRB assay relative to control; settings: KM12, 48 h, read-out: Activity
[10] = Cytotoxicity against human UACC62 cells assessed as cell growth at 10^-6 M after 48 hrs by SRB assay relative to control; settings: UACC-62, 48 h, read-out: Activity
U-251 = assay: Cytotoxicity against human U251 cells assessed as cell growth at 10^-6 M after 48 hrs by SRB assay relative to control; settings: U-251, 48 h, read-out: Activity
HCC 2998 = assay: Cytotoxicity against human HCC2998 cells assessed as cell growth at 10^-7 M after 48 hrs by SRB assay relative to control; settings: HCC 2998, 48 h, read-out: Activity
786-0 = assay: Cytotoxicity against human 786-0 cells assessed as cell growth at 10^-6 M after 48 hrs by SRB assay relative to control; settings: 786-0, 48 h, read-out: Activity
SK-MEL-28 [11] = assay: Cytotoxicity against human SK-MEL-28 cells assessed as cell growth at 10^-4 M after 48 hrs by SRB assay relative to control; settings: SK-MEL-28, 48 h, read-out: Activity
MDA-MB-435 = assay: Cytotoxicity against human MDA-MB-435 cells assessed as cell growth at 10^-4 M after 48 hrs by SRB assay relative to control; settings: MDA-MB-435, 48 h, read-out: Activity
NCI-H23 = assay: Cytotoxicity against human NCI-H23 cells assessed as cell growth at 10^-7 M after 48 hrs by SRB assay relative to control; settings: NCI-H23, 48 h, read-out: Activity
NCI-H322M = assay: Cytotoxicity against human NCI-H322M cells after 48 hrs by SRB assay
[12] = Cytotoxicity against human PC3 cells after 48 hrs by SRB assay; settings: PC-3, 48 h
SN12C = assay: Cytotoxicity against human SN12C cells assessed as cell growth at 10^-8 M after 48 hrs by SRB assay relative to control; settings: read-out: Activity
SNB-75 = assay: Cytotoxicity against human SNB75 cells assessed as cell growth at 10^-7 M after 48 hrs by SRB assay relative to control; settings: SNB-75, 48 h, read-out: Activity
MDA-MB-468 = assay: Cytotoxicity against human MDA-MB-468 cells assessed as cell growth at 10^-7 M after 48 hrs by SRB assay relative to control; settings: MDA-MB-468, 48 h, read-out: Activity
[13] = Cytotoxicity against human HCT116 cells assessed as cell growth at 10^-4 M after 48 hrs by SRB assay relative to control; settings: HCT-116, 48 h, read-out: Activity
NCI-H226 = assay: Cytotoxicity against human NCI-H226 cells assessed as cell growth at 10^-4 M after 48 hrs by SRB assay relative to control; settings: NCI-H226, 48 h, read-out: Activity
SF-295 = assay: Cytotoxicity against human SF295 cells assessed as cell growth at 10^-7 M after 48 hrs by SRB assay relative to control; settings: SF-295, 48 h, read-out: Activity
[14] = Cytotoxicity against human UO31 cells after 48 hrs by SRB assay; settings: UO-31, 48 h
[15] = Cytotoxicity against human OVCAR3 cells assessed as cell growth at 10^-4 M after 48 hrs by SRB assay relative to control; settings: OVCAR-3, 48 h, read-out: Activity
[16] = read-out: LC50 (the source's name)

COc1ccc(CCN2COc3c([C@@H](C)CCC=C(C)C)ccc(C)c3C2)cc1OC
growth at 100 µM [1]: -90% | growth at 0.01 µM (Malme-3M): 91% | GI50 (K562 [2]): 3.7 µM | TGI (K562 [2]): 93.5 µM | CC50 (K562 [2]; [16]): > 100 µM | growth at 0.01 µM (SK-MEL-28 [3]): 106% | GI50 [4]: 2.17 µM | TGI [4]: 4.94 µM | CC50 [4, 16]: 13.3 µM | growth at 0.1 µM (DU-145): 94% | growth at 0.01 µM (TK-10 [5]): 88% | growth at 0.01 µM (K562 [6]): 102% | growth at 0.01 µM (MCF7): 91% | growth at 1 µM [7]: 91% | GI50 (CAKI-1): 2.73 µM | TGI (CAKI-1): 12.1 µM | CC50 (CAKI-1; [16]): 41.3 µM | growth at 0.01 µM (HT-29): 97% | growth at 0.1 µM (COLO 205): 103% | growth at 0.1 µM (A498): 97% | growth at 0.1 µM (SK-MEL-28 [8]): 84% | growth at 1 µM (IGROV-1): 53% | growth at 100 µM (ACHN): -92% | growth at 100 µM (TK-10 [9]): -88% | growth at 0.01 µM (KM12): 98% | growth at 1 µM [10]: 86% | growth at 1 µM (U-251): 88% | growth at 0.1 µM (HCC 2998): 83% | growth at 1 µM (786-0): 96% | growth at 100 µM (SK-MEL-28 [11]): -95% | growth at 100 µM (MDA-MB-435): -78% | growth at 0.1 µM (NCI-H23): 107% | GI50 (NCI-H322M): 3.03 µM | LC50 (NCI-H322M): 55.7 µM | TGI (NCI-H322M): 11.6 µM | GI50 [12]: 1.95 µM | LC50 [12]: 49.3 µM | TGI [12]: 5.83 µM | growth at 0.01 µM (SN12C): 86% | growth at 0.1 µM (SNB-75): 86% | growth at 0.1 µM (MDA-MB-468): 60% | growth at 100 µM [13]: -100% | growth at 100 µM (NCI-H226): -93% | growth at 0.1 µM (SF-295): 92% | GI50 [14]: 2.45 µM | LC50 [14]: 36.4 µM | TGI [14]: 12.3 µM | growth at 100 µM [15]: -94%
